Results published in ChEMBL document CHEMBL1201862, “PubChem BioAssay data set” (2004).
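Step 1: Grow cells in 96-well plates. Step 2: Expose to compound for 48 hours at 5 concentrations. Step 3: Interpolate endpoints linearly; if unreached, use highest concentration. The concentration for 50% growth inhibition is given as GI50.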 Activity calls are given as the source filed them. No stated cut-off is given here; in the data, active = GI50 up to about 1.1 µM and inactive = higher.

What was measured:
Test in all cases: DTP human tumour cell line panel, 48 h
SK-OV-3 = tested on: SK-OV-3
HT-29 = tested on: HT-29
SN12C = tested on: SN12C
OVCAR-8 = tested on: OVCAR-8
RPMI-8226 = tested on: RPMI-8226
Hs-578T = tested on: Hs-578T
PC-3 = tested on: PC-3
M14 = tested on: M14
UACC-257 = tested on: UACC-257
NCI-H522 = tested on: NCI-H522
SW-620 = tested on: SW-620
NCI-H23 = tested on: NCI-H23
Malme-3M = tested on: Malme-3M
SF-268 = tested on: SF-268
U-251 = tested on: U-251
MDA-MB-231 = tested on: MDA-MB-231
COLO 205 = tested on: COLO 205
SK-MEL-28 = tested on: SK-MEL-28
CAKI-1 = tested on: CAKI-1
SK-MEL-2 = tested on: SK-MEL-2
T47D = tested on: T47D
MOLT-4 = tested on: MOLT-4
786-0 = tested on: 786-0
NCI/ADR-RES = tested on: NCI/ADR-RES
MDA-MB-435 = tested on: MDA-MB-435
MCF7 = tested on: MCF7
OVCAR-5 = tested on: OVCAR-5
HCT-116 = tested on: HCT-116
MDA-N = tested on: MDA-N
HCT-15 = tested on: HCT-15
HCC 2998 = tested on: HCC 2998
LOX IMVI = tested on: LOX IMVI
NCI-H226 = tested on: NCI-H226
KM12 = tested on: KM12
SNB-19 = tested on: SNB-19
EKVX = tested on: EKVX
SF-295 = tested on: SF-295
NCI-H460 = tested on: NCI-H460
IGROV-1 = tested on: IGROV-1
OVCAR-3 = tested on: OVCAR-3
BT-549 = tested on: BT-549
A498 = tested on: A498
DU-145 = tested on: DU-145
UO-31 = tested on: UO-31
A549 = tested on: A549
SK-MEL-5 = tested on: SK-MEL-5
UACC-62 = tested on: UACC-62
K562 = tested on: K562
HOP-92 = tested on: HOP-92
SF-539 = tested on: SF-539
TK-10 = tested on: TK-10
ACHN = tested on: ACHN
OVCAR-4 = tested on: OVCAR-4
SNB-75 = tested on: SNB-75
SR = tested on: SR
CCRF-CEM = tested on: CCRF-CEM
HL-60 = tested on: HL-60
RXF 393 = tested on: RXF 393
HOP-62 = tested on: HOP-62

CO[C@@]12C[C@@H](C)[C@]34O[C@H]3C[C@]3(C)O[C@]43CC1=C(C)C(=O)O2
GI50 (SK-OV-3): > 100 µM (inactive) | GI50 (HT-29): > 100 µM (inactive) | GI50 (SN12C): > 100 µM (inactive) | GI50 (OVCAR-8): > 100 µM (inactive) | GI50 (RPMI-8226): > 100 µM (inactive) | GI50 (Hs-578T): > 100 µM (inactive) | GI50 (PC-3): > 100 µM (inactive) | GI50 (M14): > 100 µM (inactive) | GI50 (UACC-257): > 100 µM (inactive) | GI50 (NCI-H522): > 100 µM (inactive) | GI50 (SW-620): > 100 µM (inactive) | GI50 (NCI-H23): > 100 µM (inactive) | GI50 (Malme-3M): > 100 µM (inactive) | GI50 (SF-268): > 100 µM (inactive) | GI50 (U-251): > 100 µM (inactive) | GI50 (MDA-MB-231): > 100 µM (inactive) | GI50 (COLO 205): > 100 µM (inactive) | GI50 (SK-MEL-28): > 100 µM (inactive) | GI50 (CAKI-1): > 100 µM (inactive) | GI50 (SK-MEL-2): > 100 µM (inactive) | GI50 (T47D): > 100 µM (inactive) | GI50 (MOLT-4): < 0.01 µM (active) | GI50 (786-0): > 100 µM (inactive) | GI50 (NCI/ADR-RES): > 100 µM (inactive) | GI50 (MDA-MB-435): > 100 µM (inactive) | GI50 (MCF7): > 100 µM (inactive) | GI50 (OVCAR-5): > 100 µM (inactive) | GI50 (HCT-116): > 100 µM (inactive) | GI50 (MDA-N): > 100 µM (inactive) | GI50 (HCT-15): > 100 µM | GI50 (HCC 2998): > 100 µM (inactive) | GI50 (LOX IMVI): > 100 µM (inactive) | GI50 (NCI-H226): > 100 µM (inactive) | GI50 (KM12): > 100 µM (inactive) | GI50 (SNB-19): > 100 µM (inactive) | GI50 (EKVX): > 100 µM (inactive) | GI50 (SF-295): > 100 µM (inactive) | GI50 (NCI-H460): > 100 µM (inactive) | GI50 (IGROV-1): 38.8 µM (inactive) | GI50 (OVCAR-3): > 100 µM (inactive) | GI50 (BT-549): > 100 µM (inactive) | GI50 (A498): > 100 µM (inactive) | GI50 (DU-145): > 100 µM (inactive) | GI50 (UO-31): > 100 µM (inactive) | GI50 (A549): > 100 µM (inactive) | GI50 (SK-MEL-5): > 100 µM (inactive) | GI50 (UACC-62): > 100 µM (inactive) | GI50 (K562): > 100 µM (inactive) | GI50 (HOP-92): > 100 µM (inactive) | GI50 (SF-539): > 100 µM (inactive) | GI50 (TK-10): > 100 µM (inactive) | GI50 (ACHN): > 100 µM (inactive) | GI50 (OVCAR-4): > 100 µM (inactive)

O=c1[nH]c2cc3[nH]c4ncccc4c(=O)c3cc2[nH]1
GI50 (SNB-75): > 10 µM (inactive) | GI50 (SK-OV-3): > 10 µM (inactive) | GI50 (HT-29): > 10 µM (inactive) | GI50 (SN12C): > 10 µM (inactive) | GI50 (OVCAR-8): > 10 µM (inactive) | GI50 (RPMI-8226): > 10 µM (inactive) | GI50 (Hs-578T): > 10 µM (inactive) | GI50 (PC-3): > 10 µM (inactive) | GI50 (M14): > 10 µM (inactive) | GI50 (UACC-257): > 10 µM (inactive) | GI50 (NCI-H522): > 10 µM (inactive) | GI50 (SW-620): > 10 µM (inactive) | GI50 (NCI-H23): > 10 µM (inactive) | GI50 (Malme-3M): > 10 µM (inactive) | GI50 (SF-268): > 10 µM (inactive) | GI50 (U-251): > 10 µM (inactive) | GI50 (MDA-MB-231): > 10 µM (inactive) | GI50 (COLO 205): > 10 µM (inactive) | GI50 (SR): > 10 µM (inactive) | GI50 (SK-MEL-28): > 10 µM (inactive) | GI50 (CAKI-1): > 10 µM (inactive) | GI50 (SK-MEL-2): > 10 µM (inactive) | GI50 (T47D): > 10 µM (inactive) | GI50 (MOLT-4): > 10 µM (inactive) | GI50 (786-0): > 10 µM (inactive) | GI50 (NCI/ADR-RES): > 10 µM (inactive) | GI50 (MDA-MB-435): > 10 µM (inactive) | GI50 (CCRF-CEM): > 10 µM (inactive) | GI50 (HL-60): > 10 µM (inactive) | GI50 (OVCAR-5): > 10 µM (inactive) | GI50 (HCT-116): > 10 µM (inactive) | GI50 (MDA-N): > 10 µM (inactive) | GI50 (RXF 393): > 10 µM (inactive) | GI50 (HCT-15): > 10 µM | GI50 (HCC 2998): > 10 µM (inactive) | GI50 (LOX IMVI): > 10 µM (inactive) | GI50 (NCI-H226): > 10 µM (inactive) | GI50 (KM12): > 10 µM (inactive) | GI50 (SNB-19): > 10 µM (inactive) | GI50 (EKVX): > 10 µM (inactive) | GI50 (SF-295): > 10 µM (inactive) | GI50 (NCI-H460): > 10 µM (inactive) | GI50 (IGROV-1): > 10 µM (inactive) | GI50 (OVCAR-3): > 10 µM (inactive) | GI50 (BT-549): > 10 µM (inactive) | GI50 (A498): > 10 µM (inactive) | GI50 (DU-145): > 10 µM (inactive) | GI50 (A549): > 10 µM (inactive) | GI50 (SK-MEL-5): > 10 µM (inactive) | GI50 (UACC-62): > 10 µM (inactive) | GI50 (HOP-92): > 10 µM (inactive) | GI50 (SF-539): > 10 µM (inactive) | GI50 (TK-10): > 10 µM (inactive) | GI50 (ACHN): > 10 µM (inactive) | GI50 (OVCAR-4): > 10 µM (inactive) | GI50 (HOP-62): > 10 µM (inactive)

O=C1C(NCCN2CCOCC2)=C(Cl)C(=O)c2ncccc21
GI50 (SNB-75): 1.12 µM (inactive) | GI50 (SK-OV-3): 1.43 µM (inactive) | GI50 (HT-29): 0.637 µM (active) | GI50 (SN12C): 1.36 µM (inactive) | GI50 (OVCAR-8): 0.377 µM (active) | GI50 (RPMI-8226): 0.1 µM (active) | GI50 (Hs-578T): 1.21 µM (inactive) | GI50 (PC-3): 0.289 µM (active) | GI50 (M14): 0.469 µM (active) | GI50 (SW-620): 0.105 µM (active) | GI50 (NCI-H23): 0.556 µM (active) | GI50 (Malme-3M): 0.564 µM (active) | GI50 (SF-268): 1.52 µM (inactive) | GI50 (U-251): 0.849 µM (active) | GI50 (MDA-MB-231): 1.58 µM (inactive) | GI50 (SR): 1.32 µM (inactive) | GI50 (SK-MEL-28): 1.61 µM (inactive) | GI50 (SK-MEL-2): 0.226 µM (active) | GI50 (T47D): 1.39 µM (inactive) | GI50 (MOLT-4): 2.15 µM (inactive) | GI50 (786-0): 0.431 µM (active) | GI50 (MDA-MB-435): 0.182 µM (active) | GI50 (MCF7): 0.326 µM (active) | GI50 (CCRF-CEM): 0.214 µM (active) | GI50 (HL-60): 0.0249 µM (active) | GI50 (OVCAR-5): 1.7 µM (inactive) | GI50 (HCT-116): 0.348 µM (active) | GI50 (MDA-N): 0.178 µM (active) | GI50 (RXF 393): 0.327 µM (active) | GI50 (HCT-15): 0.339 µM | GI50 (HCC 2998): 0.625 µM (active) | GI50 (LOX IMVI): 0.168 µM (active) | GI50 (NCI-H226): 1.69 µM (inactive) | GI50 (KM12): 1.34 µM (inactive) | GI50 (SNB-19): 1.42 µM (inactive) | GI50 (EKVX): 1.48 µM (inactive) | GI50 (SF-295): 1.4 µM (inactive) | GI50 (NCI-H460): 0.445 µM (active) | GI50 (IGROV-1): 1.05 µM (active) | GI50 (OVCAR-3): 0.392 µM (active) | GI50 (BT-549): 1.29 µM (inactive) | GI50 (A498): 2.03 µM (inactive) | GI50 (DU-145): 1.01 µM (active) | GI50 (UO-31): 1.12 µM (active) | GI50 (A549): 1.55 µM (inactive) | GI50 (SK-MEL-5): 0.312 µM (active) | GI50 (UACC-62): 0.618 µM (active) | GI50 (K562): 0.179 µM (active) | GI50 (HOP-92): 2.08 µM (inactive) | GI50 (SF-539): 1.18 µM (inactive) | GI50 (TK-10): 1.45 µM (inactive) | GI50 (ACHN): 1.1 µM (active) | GI50 (HOP-62): 1.6 µM (inactive)
